Measured values: paper PMC9784018, “Rational Strategy for Designing Peptidomimetic Small Molecules Based on Cyclic Peptides Targeting Protein–Protein Interaction between CTLA-4 and B7-1” (Pharmaceuticals, 2022)
Positions of bridges follow the written chain, without caps; N, C: chain ends. Residues, ends and D or L forms follow the SMILES beside them.

Experiments:
[1] = Solubility of synthesized peptide; assay type: physicochemical; settings: chemically synthesized peptide, in inhibitor screening assay
Protocol: (§1) We prepared the C4m-3127 cyclic peptide using chemical synthesis and examined its properties. First, the inhibitory activity was tested using a kit (CTLA-4:B7-1[Biotinylated] Inhibitor Screening Assay, BPS Bioscience Inc.) (Figure 5A). […] In a sequence of C4m-3127, the GG linker behind C-terminal Cys had mutated into Glu and Arg.

[2] = target: T1, CTLA-4 (Homo sapiens, UniProt P16410); test: Competitive ELISA against biotinylated C4m-3127 peptide; assay type: binding; settings: competition with 30 μM biotinylated C4m-3127 peptide on immobilized CTLA-4; data not shown
T1 sequence (P16410 36-223): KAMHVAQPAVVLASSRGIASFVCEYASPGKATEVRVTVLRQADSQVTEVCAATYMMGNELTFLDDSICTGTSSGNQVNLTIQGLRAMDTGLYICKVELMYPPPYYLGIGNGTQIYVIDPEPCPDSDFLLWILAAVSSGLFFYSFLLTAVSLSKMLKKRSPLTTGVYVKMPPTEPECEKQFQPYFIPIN
Protocol: Competition experiments were performed using biotinylated C4m-3127 peptide instead of biotinylated B7-1 in the CTLA-4:B7-1[Biotinylated] inhibitor screening assay. The biotinylated C4m-3127 peptide was optimized to a concentration of 30 μM in an earlier experiment. CTLA-4 immobilized on a 384-well plate was reacted with PGF00506 in 11-point two-fold serial dilution from 1000 to 0.98 μM by assay buffer. Then, the biotinylated peptides were added to wells for competitive reaction. After washing, the residual amounts of biotinylated peptides were detected using streptavidin-HRP.

[3] = target: T2, interaction between CTLA-4 and B7-1 (Homo sapiens, UniProt P16410); test: CTLA-4:B7-1[Biotinylated] Inhibitor Screening Assay (BPS Bioscience kit); assay type: binding
T2 construct: purchased BPS Bioscience Inc
T2 sequence (P16410 36-161 limits assumed): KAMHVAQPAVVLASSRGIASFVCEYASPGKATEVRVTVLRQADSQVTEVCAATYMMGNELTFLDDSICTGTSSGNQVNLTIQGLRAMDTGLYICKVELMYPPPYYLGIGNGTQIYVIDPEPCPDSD
Protocol: as §1
A cyclic peptide with a low EC50 value was synthesized by adding glycine to the N-terminus at Toray Research Center.
(B) Flow cytometry affinity analysis.

| solubility [1] | IC50 [2] [µM] | IC50 ([3]; inhibition of CTLA-4:B7-1 interaction, luminescence, four-parameter logistic fit, read-out: IC50) [µM] | inhibitory activity compared to PGF00432 ([3]; ratio of IC50 values) [fold] | inhibitory activity compared to C4m-3127 ([3]; ratio of IC50 values, C4m-3127 synthetic peptide IC50 = 11.5 μM) [fold] | SMILES |
| --- | --- | --- | --- | --- | --- |
| improved solubility | – | – | – | – | CC[C@H](C)[C@@H]1NC(=O)[C@@H]2CCCN2C(=O)[C@H](CC(C)C)NC(=O)[C@H](Cc2ccccc2)NC(=O)[C@@H]2CCCN2C(=O)[C@H](Cc2c[nH]cn2)NC(=O)[C@H](CCSC)NC(=O)[C@@H](NC(=O)CN)CSSC[C@@H](C(=O)N[C@@H](CCC(=O)O)C(=O)N[C@@H](CCCNC(=N)N)C(=O)O)NC(=O)[C@H](Cc2ccccc2)NC(=O)[C@H](Cc2c[nH]cn2)NC(=O)[C@H](Cc2c[nH]cn2)NC(=O)[C@H](CO)NC(=O)[C@H](C(C)C)NC1=O [C4m-3127 peptide] (H-GCMHPFLPIVSHHFCER-OH; disulfide 2-15; N-terminus and C-terminus assumed) |
| – | 10.5 | 6.8 | 43 | 1.7 | N=C(N)NCCC[C@H]1C(=O)N(CCC(c2ccccc2)c2ccccc2)C[C@@H]2N(C(=O)OCc3ccccc3)O[C@H](CC3CCCCC3)C(=O)N21 [PGF00506, Benzyl (3R,6S,9aS)-3-(cyclohexylmethyl)-8-(3,3-diphenylpropyl)-6-(3-guanidinopropyl)-4,7-dioxohexahydropyrazino [2,1-c][1,2,4]oxadiazine-1(6H)-carboxylate] |
